Reference: US11459323B2, “Monocyclic β-lactam compound for treating bacterial infection” (MEDSHINE DISCOVERY INC., priority 2018, dated 2022)
In brackets after ≈: the same amount, converted by molar mass. Where two headings read alike, the source gives them in different places. Marks after values point to notes of the source that are not given here.

Experiments:
[1] = test system: Pseudomonas aeruginosa PA14; experiment: Lungs of immunosuppressed mice infected with Pseudomonas aeruginosa (1), lung bacterial load; type: in vivo; settings: 24 hours after infection, day, ip at 2 h, 4 h, 6 h, 8 h
Experimental: Pseudomonas aeruginosa PA14. 64 mice were intraperitoneally injected with 150 mg/kg cyclophosphamide on the first day and the fourth day to give immunosuppressed mice. […] [table] The mice were injected with 50 μL of bacterial solution (2×10^3 CFU) through the airway. 2 hours after the infection, 4 mice in the model group was sacrificed by removing cervical vertebra. Two hours after infection, the drugs were administered by groups, and the mice were administered intraperitoneally once at 2 hours, 4 hours, 6 hours, and 8 hours, a total of 4 times. Mice of each group were sacrificed by removing cervical vertebra 24 hours after infection, lung and kidney tissues were taken aseptically and put into sterilized tissue homogenate tubes, weighed, and an appropriate amount of normal saline (NS) was added, the mixture was homogenized by a homogenizer for 1 min, the lung tissues of the model group were diluted 10^4, 10^5, 10^6 times, the lung tissues of each administration group were diluted 10, 100 times, the kidney tissues of the model group were diluted 10^2, […], 10^4 times, and the lung tissues of each administration group were diluted 10 times, the obtained mixtures were coated on TSA plates using spiral coater, then incubated at 37° C. overnight, and the CFU was counted with a colony counter. Graphpad Prism mapping software was used to make scatter plots of lung tissue CFU. SPSS19.0 software was used to count CFU and average body weight, and analysis of variance was used to analyze differences between groups.

[2] = Pharmacokinetic experiment of the compounds in mice; type: in vivo; settings: mouse, plasma, 2 mg/kg, Male CD-1 mice, fasting, 2 mpk; for Vd / clearance / AUC(0-t) / half-life / C0: intravenous injection; for Vd: read-out: Apparent distribution volume Vdss; for clearance: read-out: Clearance rate Cl; for AUC(0-t): read-out: Exposure AUC0-last; for half-life: read-out: Half-life period T1/2 (converted); for C0: read-out: Initial concentration C0; for bioavailability / Cmax: second section of Table 7 (intravenous injection); for Cmax: read-out: Maximum concentration Cmax
Experimental: In this experiment, six CD-1 mice (males) were divided into 2 groups (2 groups) according to their similar body weight. Group 1 and Group 2 were given respectively a single intravenous and intraperitoneal injection of the compounds of embodiment 13, embodiment 17, embodiment 32 and embodiment 34, each compound was at 2 mg/kg. The vehicles for intravenous and intraperitoneal injections were 5% dimethyl sulfoxide/95% water (10% polyoxyethylene castor oil), K2-EDTA (anticoagulant).
About 0.02 mL of blood samples from the saphenous vein were collected from all experimental animals, and the actual blood collection time was recorded. In this experiment, the deviation between the actual blood collection time and the theoretical blood collection time was in accordance with the regulations (the deviation of time points within 1 hour after administration were within 1 minute, and other deviations were within 5% of the theoretical time). After the blood samples were collected, they were immediately transferred to labeled centrifuge tubes containing K2 EDTA (0.5 M), followed by centrifugation (3,000 g, 4° C., 15 minutes) and the plasma was collected. The plasma was transferred to pre-cooled centrifuge tubes, quickly frozen in dry ice, and stored in an ultra-low temperature refrigerator at −60° C. or lower until LC-MS/MS analysis.

[3] = test system: E. coli ATCC 25922; experiment: MIC by micro-liquid dilution method (CLSI); type: cell-based; settings: Escherichia coli
[4] = test system: A. baumannii ATCC 17978; experiment: MIC by micro-liquid dilution method (CLSI); type: cell-based; settings: Acinetobacter baumannii
[5] = test system: K. pneumoniae ATCC BAA-205 (TEM-1/SHV-1/SHV-12); experiment: MIC by micro-liquid dilution method (CLSI); type: cell-based, Klebsiella pneumonia; settings: Klebsiella pneumoniae, ATCCBAA205
[6] = test system: E. coli ATCC BAA-2523 (OXA-48); experiment: MIC by micro-liquid dilution method (CLSI); type: cell-based; settings: Escherichia coli, ATCCBAA2523
Excerpt: (§1) Three strains of Klebsiella pneumonia, K. pneumoniae ATCC BAA-205 (TEM-1/SHV-1/SHV-12), K. pneumoniae ATCC BAA-1705 (KPC-2), K. pneumoniae ATCC BAA-2470 (NDM-1); three strains of Pseudomonas aeruginosa, P. aeruginosa NCTC13437 (VIM-10; VEB-1), P. aeruginosa PA 14 and P. aeruginosa ATCC 35151; four strains of Escherichia coli, E. coli NCTC 13476 (IMP-1 type), E. coli ATCC BAA-2523 (OXA-48), E. coli MG1655Δtol C, E. coli ATCC 25922; one strain of Acinetobacter baumannii, A. baumannii ATCC 17978 and one strain of Staphylococcus aureus, S. aureus NRS384 were used to determine the minimum inhibitory concentration (MIC) of the compounds by micro-liquid dilution method according to the Institute of Clinical and Laboratory Standard (CLSI) requirements.

[7] = test system: E. coli MG1655Δtol C; experiment: MIC by micro-liquid dilution method (CLSI); type: cell-based; settings: Escherichia coli
Excerpt: as §1

[8] = test system: P. aeruginosa PA 14; experiment: MIC by micro-liquid dilution method (CLSI); type: cell-based; settings: Pseudomonas aeruginosa, PA14
Excerpt: as §1

[9] = test system: E. coli NCTC 13476 (IMP-1 type); experiment: MIC by micro-liquid dilution method (CLSI); type: cell-based; settings: Escherichia coli
Excerpt: as §1

[10] = test system: K. pneumoniae ATCC BAA-1705 (KPC-2); experiment: MIC by micro-liquid dilution method (CLSI); type: cell-based, Klebsiella pneumonia; settings: Klebsiella pneumoniae, ATCCBAA1705
[11] = test system: P. aeruginosa ATCC 35151; experiment: MIC by micro-liquid dilution method (CLSI); type: cell-based; settings: Pseudomonas aeruginosa
[12] = test system: K. pneumoniae ATCC BAA-2470 (NDM-1); experiment: MIC by micro-liquid dilution method (CLSI); type: cell-based, Klebsiella pneumonia; settings: Klebsiella pneumoniae, ATCCBAA2470
[13] = test system: Acinetobacter baumannii ATCC-BAA-1791; experiment: MIC on Acinetobacter baumannii strains; type: cell-based; settings: ATCCBAA1791
Excerpt: (§2) Twelve strains of Acinetobacter baumannii, A. baumannii ATCC 17978 (ATCC-BAA-1605, ATCC-BAA-1789, ATCC-BAA-1790, ATCC-BAA-1791, ATCC-BAA-1792, ATCC-BAA-1793, ATCC-BAA-1794, ATCC-BAA-1795, ATCC-BAA-1799, ATCC-BAA-1800, ATCC 19606, ATCC 17978) were used to determine the minimum inhibitory concentration (MIC) of the compounds by micro-liquid dilution method according to the Institute of Clinical and Laboratory Standard (CLSI) requirements.

[14] = test system: Acinetobacter baumannii ATCC-BAA-1793; experiment: MIC on Acinetobacter baumannii strains; type: cell-based; settings: ATCCBAA1793, ATCC-BAA-1793, read-out: MIC
Excerpt: as §2

[15] = test system: Acinetobacter baumannii ATCC-BAA-1605; experiment: MIC on Acinetobacter baumannii strains; type: cell-based; settings: ATCCBAA1605, ATCC-BAA-1605, read-out: MIC
Excerpt: as §2

[16] = A. baumannii ATCC17978, read-out: MIC
[17] = K. pneumoniae ATCCBAA-205, read-out: MIC
[18] = P. aeruginosa PA 14, read-out: MIC
[19] = E. coli NCTC13476, read-out: MIC
[20] = K. pneumoniae ATCCBAA-1705, read-out: MIC
[21] = K. pneumoniae ATCCBAA-2470, read-out: MIC
[22] = E. coli ATCC25922, read-out: MIC
[23] = E. coli ATCCBAA-2523, read-out: MIC

SMILES	Vd [2] [L/kg]	clearance [2] [mL/min/kg]	AUC(0-t) [2] [µM·h]	half-life [2] [min]	C0 [2] [µM]	bioavailability [2] [%]	Cmax [2] [µM]	MIC [4, 16] [µg/mL]	MIC [5, 17] [µg/mL]	MIC [6] [µg/mL]	MIC [7] [µg/mL]	MIC [8, 18] [µg/mL]	MIC [9, 19] [µg/mL]	MIC [10, 20] [µg/mL]	MIC ([11]; ATCC35151) [µg/mL]	MIC [12, 21] [µg/mL]	further results
CC1(C)[C@H](NC(=O)/C(=N\OCCOc2ccc3c(c2)CCN(C(=N)NC2CCNCC2)C3)c2csc(N)n2)C(=O)N1OS(=O)(=O)O [Compound 12]								0.5 (≈ 0.736 µM)	16 (≈ 23.5 µM)	≤ 0.125	≤ 0.125	2 (≈ 2.94 µM)	0.25 (≈ 0.368 µM)	1 (≈ 1.47 µM)	≤ 0.125	1 (≈ 1.47 µM)	MIC ([3]; ATCC25922): ≤ 0.125 µg/mL
CC1(C)[C@H](NC(=O)/C(=N\OCCOc2ccc3c(c2)CN(C(=N)N)CC3)c2csc(N)n2)C(=O)N1OS(=O)(=O)O [Compound 10]								4 (≈ 6.7 µM)	16 (≈ 26.8 µM)		≤ 0.125	8 (≈ 13.4 µM)	2 (≈ 3.35 µM)	4 (≈ 6.7 µM)		4 (≈ 6.7 µM)	MIC [3, 22]: 1 µg/mL (≈ 1.68 µM); MIC [6, 23]: 0.25 µg/mL (≈ 0.419 µM); MIC ([11]; P. aeruginosa ATCC35151, read-out: MIC): 0.25 µg/mL (≈ 0.419 µM)
CC1(C)[C@H](C(=O)O)N2C(=O)C[C@H]2S1(=O)=O [Sulbactam, reference compound]										64 (≈ 274 µM)	32 (≈ 137 µM)				64 (≈ 274 µM)		MIC ([3]; ATCC25922): 64 µg/mL (≈ 274 µM); MIC ([4]; ATCC17978): 2 µg/mL (≈ 8.57 µM); MIC [5]: 64 µg/mL (≈ 274 µM); MIC [8]: 8 µg/mL (≈ 34.3 µM); MIC ([9]; NCTC13476): > 128 µg/mL; MIC [10]: > 128 µg/mL; MIC [12]: > 128 µg/mL
CC1(C)[C@H](NC(=O)/C(=N\OCCOc2ccc3c(c2)CN(C(=N)NCCCN)C3)c2csc(N)n2)C(=O)N1OS(=O)(=O)O [Compound 13]	0.281	8.51	6.73	28.6	18.9	88.4	5.76										
CC1(C)[C@H](NC(=O)/C(=N\OCCOc2ccc3c(c2)CCN(C(=N)N2CCNCC2)C3)c2csc(N)n2)C(=O)N1OS(=O)(=O)O [Compound 11]								2 (≈ 3 µM)	16 (≈ 24 µM)	≤ 0.125	≤ 0.125	4 (≈ 6.01 µM)	0.5 (≈ 0.751 µM)	1 (≈ 1.5 µM)	≤ 0.125	1 (≈ 1.5 µM)	MIC [3, 22]: 0.25 µg/mL (≈ 0.376 µM)

Now from value to compound, other results behind:

Vd [2] [L/kg]	clearance [2] [mL/min/kg]	AUC(0-t) [2] [µM·h]	half-life [2] [min]	C0 [2] [µM]	bioavailability [2] [%]	Cmax [2] [µM]	SMILES	MIC [4, 16] [µg/mL]	MIC [5, 17] [µg/mL]	MIC [6] [µg/mL]	MIC [7] [µg/mL]	MIC [8, 18] [µg/mL]	MIC [9, 19] [µg/mL]	MIC [10, 20] [µg/mL]	MIC ([11]; ATCC35151) [µg/mL]	MIC [12, 21] [µg/mL]	further results
0.274	10.4	4.95	22.6	14.4	93.3	5.55	CC1(C)[C@H](NC(=O)/C(=N\O[C@@H](COc2ccc3c(c2)CN(C(=N)NCCCN)C3)C(=O)O)c2csc(N)n2)C(=O)N1OS(=O)(=O)O [Compound 34]										LOG10-of bacterial load ([1]; total dosage 60 mg/kg): 0**; LOG10-of bacterial load ([1]; total dosage 120 mg/kg): 0**; LOG10-of bacterial load ([1]; total dosage 200 mg/kg): 1.10 ± 1.75
0.237	4.6	11	35.8	17	131	10.6	CC1(C)[C@H](NC(=O)/C(=N\OCCOc2ccc3c(c2)CN(C(=N)N(CCCN)CCCN)C3)c2csc(N)n2)C(=O)N1OS(=O)(=O)O [Compound 17]	≤ 0.125	2 (≈ 2.87 µM)			0.5 (≈ 0.718 µM)		0.25 (≈ 0.359 µM)		0.25 (≈ 0.359 µM)	MIC [13]: 0.25 µg/mL (≈ 0.359 µM); MIC [14]: 4 µg/mL (≈ 5.74 µM); MIC [15]: 4 µg/mL (≈ 5.74 µM); MIC [6, 23]: ≤ 0.125 µg/mL
0.0636	1.57	5.77	30.8	11.3	140	8	CC1(C)[C@H](NC(=O)/C(=N\O[C@@H](COc2ccc3c(c2)CN(C(=N)N(CCCN)CCCN)C3)C(=O)O)c2csc(N)n2)C(=O)N1OS(=O)(=O)O [Compound 32]										LOG10-of bacterial load ([1]; total dosage 60 mg/kg): 0**; LOG10-of bacterial load ([1]; total dosage 120 mg/kg): 0**; LOG10-of bacterial load ([1]; total dosage 200 mg/kg): 0**
